*: point of attachment. DABSYL = CN(C)c1ccc(/N=N/c2ccc(S(=O)(=O)*)cc2)cc1; EDANS = O=S(=O)(O)c1cccc2c(NCCN*)cccc12
Key:
[1] = system: mpl; test: FRET analysis of mpl activity with DABCYL/EDANS-labeled peptide substrates (Listeria); format: biochemical, Listeria monocytogenes; conditions: FRET peptide probe
From the text: The presence of L. monocytogenes contamination is detected by measuring the metalloprotease (mpl), which is found only in the pathogenic species of L. monocytogenes (Domann et al., infection and Immunity. 1991. January; 59(1):65-72; Mengaud et al., 1991). A series of peptides, M1 (lot 038-13/15) and P1 (lot 038-10/12), for use as synthetic substrates for mpl (Table 1) was designed and the sequences manufactured by New England Peptide (195 Kimball St., Fitchburg, Mass.). The peptides were synthesized with fluorescent groups (DABCYL and EDANS) in such a way that the active sites were not blocked. The M1 peptide is specific for L. monocytogenes at pH 5.5.
Fluorescence resonance energy transfer (FRET) is the process of a distance dependent excited state interaction in which the emission of one fluorescent molecule is coupled to the excitation of another. […] The cleavage reaction can be followed by observing either a decrease in DABCYL fluorescence or an increase in EDANS fluorescence (loss of quenching).
Determine the peptide sequence for the active site of the protease using fluorescence resonance energy transfer (FRET). Fluorescence resonance energy transfer (FRET) is the process of a distance dependent excited state interaction in which the emission of one fluorescent molecule is coupled to the excitation of another. […]

[2] = system: E. coli; test: FRET peptide substrate cleavage/detection with E. coli; format: biochemical; conditions: FRET peptide probe

Substance	Description: cleavage by Listeria [1]	Description: cleavage by E. coli [2]	Description: specificity of peptide substrate for Listeria (L. monocytogenes) ([1]; pH 5.5)	detection of the presence of E. coli by the peptide ([2]; pH 5.5)
DABSYL-ADTVEPTGAKE-EDANS ({DABSYL}-ADTVEPTGAKE-{EDANS}; SMILES CC(C)[C@H](NC(=O)[C@@H](NC(=O)[C@H](CC(=O)O)NC(=O)[C@H](C)NS(=O)(=O)c1ccc(/N=N/c2ccc(N(C)C)cc2)cc1)[C@@H](C)O)C(=O)N[C@@H](CCC(=O)O)C(=O)N1CCC[C@H]1C(=O)N[C@H](C(=O)NCC(=O)N[C@@H](C)C(=O)N[C@@H](CCCCN)C(=O)N[C@@H](CCC(=O)O)C(=O)NCCNc1cccc2c(S(=O)(=O)O)cccc12)[C@@H](C)O) [Peptide P2, FRET-labeled synthetic peptide probe]	Not cleaved	Not cleaved		
DABSYL-NML, SEVERE-EDANS ({DABSYL}-NMLSEVERE-{EDANS}; SMILES CSCC[C@H](NC(=O)[C@H](CC(N)=O)NS(=O)(=O)c1ccc(/N=N/c2ccc(N(C)C)cc2)cc1)C(=O)N[C@@H](CC(C)C)C(=O)N[C@@H](CO)C(=O)N[C@@H](CCC(=O)O)C(=O)N[C@H](C(=O)N[C@@H](CCC(=O)O)C(=O)N[C@@H](CCCNC(=N)N)C(=O)N[C@@H](CCC(=O)O)C(=O)NCCNc1cccc2c(S(=O)(=O)O)cccc12)C(C)C) [Peptide M1, FRET-labeled synthetic peptide substrate for mpl of L. monocytogenes (lot 038-13/15)]			Specific to	does not significantly detect
